≈ marks a conversion by molar mass, not a printed value.
Key:
Escherichia coli = experiment: MIC, standard in vitro assay (Table I); format: cell-based; settings: 10^6 CFU; 4 strains tested
From the text: (§1) Using standard in vitro assay techniques, minimal inhibitory concentrations (MIC) have been determined for difficidin and oxydifficidin against a number of bacteria.

Pseudomonas aeruginosa = experiment: MIC, standard in vitro assay (Table I); format: cell-based; settings: for MIC Range: 10^6 CFU, 3 strains tested
From the text: as §1

S. aureus Gm^R Meth^R = experiment: MIC, in vitro agar dilution assay, aerobic bacteria (Table II); format: cell-based; settings: S. aureus Gm^R Meth^R; 10^6 CFU per spot
E. coli = experiment: as above; format: cell-based; settings: 10^6 CFU per spot
From the text: (§2) Further evaluations of the antibacterial spectrum of difficidin and oxydifficidin were undertaken, especially as compared to the antibacterial spectrum of the valuable antibiotic cefoxitin, which is well known for its wide spectrum of antibacterial activity. An in vitro agar dilution assay was used, inoculum 10^6 CFU per spot. Table II below illustrates the results obtained for various aerobic bacteria, and Table III illustrates the results obtained for various anaerobic bacteria.

S. aureus = experiment: as above; format: cell-based; settings: 10^6 CFU per spot
From the text: as §2

Strep. faecalis = experiment: as above; format: cell-based; settings: 10^6 CFU per spot
From the text: as §2

E. coli TEM 2^+ = experiment: as above; format: cell-based; settings: E. coli TEM 2^+; 10^6 CFU per spot
E. coli TEM 2^+ DC 2 = experiment: as above; format: cell-based; settings: E. coli TEM 2^+ DC 2; 10^6 CFU per spot
Sal. typhimurium = experiment: as above; format: cell-based; settings: 10^6 CFU per spot
Ent. aerogenes = experiment: as above; format: cell-based; settings: Ent. aerogenes; 10^6 CFU per spot
Prot. morganii Sm^R = experiment: as above; format: cell-based; settings: Prot. morganii Sm^R; 10^6 CFU per spot
Prot. mirabilis Gm^R = experiment: as above; format: cell-based; settings: 10^6 CFU per spot
Ps. aeruginosa RPL 11^+ = experiment: as above; format: cell-based; settings: Ps. aeruginosa RPL 11^+; 10^6 CFU per spot
Ps. aeruginosa [1] = experiment: as above; format: cell-based; settings: Ps. aeruginosa, first unmarked strain; 10^6 CFU per spot
Ps. aeruginosa [2] = experiment: as above; format: cell-based; settings: Ps. aeruginosa, second unmarked strain; 10^6 CFU per spot
Ser. marcescens = experiment: as above; format: cell-based; settings: 10^6 CFU per spot
Actinomyces naeslundii = experiment: MIC, in vitro agar dilution assay, anaerobic bacteria (Table III); format: cell-based; settings: 10^6 CFU per spot
Propionibacterium acnes = experiment: as above; format: cell-based; settings: 10^6 CFU per spot
[3] = system: Peptostreptococcus anaerobius; experiment: as above; format: cell-based; settings: 10^6 CFU per spot
C. ramosum = experiment: as above; format: cell-based; settings: 10^6 CFU per spot
[4] = system: Bacteriodes fragilis Metr^r, Pen^r; experiment: as above; format: cell-based; settings: 10^6 CFU per spot
[5] = system: B. fragilis Clind^r Fox^r Tet^r; experiment: as above; format: cell-based; settings: 10^6 CFU per spot
[6] = system: B. fragilis NCCLS control strain; experiment: as above; format: cell-based; settings: 10^6 CFU per spot
[7] = system: B. distasonis Pen^r Fox^r Clind^r; experiment: as above; format: cell-based; settings: 10^6 CFU per spot
[8] = system: B. distasonis Pen^r Fox^r; experiment: as above; format: cell-based; settings: 10^6 CFU per spot
B. ovatus Pen^r = experiment: as above; format: cell-based; settings: 10^6 CFU per spot
[9] = system: B. thetaiotaomicron Clind^r; experiment: as above; format: cell-based; settings: 10^6 CFU per spot
[10] = system: B. thetaiotaomicron Clind^r, NCCLS control strain; experiment: as above; format: cell-based; settings: 10^6 CFU per spot
Veillonella alcalescens = experiment: as above; format: cell-based; settings: 10^6 CFU per spot
[11] = system: Klebsiella pneumoniae MB 4005; experiment: standard mouse protection test, experimental systemic infection; format: in vivo, CD1 female mice; settings: × 2 i.p. doses (immediately after infection and 6 hours later), 7 days
Procedure: The antibacterial efficacy of difficidin and its derivatives was further determined in standard mouse protection tests. An experimental systemic infection was produced in CD1 female mice (Charles River Breeding Laboratories, Wilmington, MA) by the intraperitoneal injection of a suitably diluted broth culture of Klebsiella pneumoniae MB 4005. The test antibacterial compounds and the control drug (streptomycin) were administered parenterally (intraperitoneally) immediately after infection and again 6 hours later. At least 4 fourfold dilutions of each agent were tested. There were 5 mice at each dose level. […] Under the conditions of the test, all infected untreated mice died within 48 hours.
Mice were protected by the administration of the test antibacterial compounds or streptomycin at the median effective doses shown in Table IV below.

[12] = system: Klebsiella pneumoniae MB 4005; experiment: MIC listed with mouse protection test (Table IV); format: cell-based
Vibrio percolans MB 1272 = experiment: in vitro agar disc diffusion bioassay of column fractions (Table V); format: cell-based
Procedure: A 0.4 ml sample of 2.1 L spent ethyl acetate fraction from Step A above was evaporated to an oily residue and taken up in 0.7 ml of 7:3 methanol-0.01Mpotassium phosphate pH 7.0. A 0.4 ml aliquot of the solution was chromatographed in the same solvent at 28° C. on a Dupont Zorbax ODS column (4.6 mn ID×25 cm), 10 micron. The flow rate was 1 ml/min. and column effluent was monitored at 275 nm using a Laboratory Data Control Spectra Monitor I ultraviolet detector equipped with a 10 mm pathlength flow cell and a Honeywell Electronik 195 recorder. Eluate was collected in 0.5 ml fractions and assayed by agar disc diffusion against Vibrio percolans MB 1272. Table V summaries bioassay results.
The data in Table V show the presence of two distinct antibacterial substances in spent ethyl acetate. The activity in Fractions 11 and 12 is due to the antibacterial oxydifficidin. The activity in Fractions 61-65 is due to the antibacterial difficidin.

anaerobic bacteria = experiment: antibacterial activity against anaerobic bacteria, summary; format: cell-based; settings: wide spectrum of anaerobic bacteria

Compound	MIC Range (Escherichia coli)	MIC Range (Pseudomonas aeruginosa)	MIC (S. aureus Gm^R Meth^R)	MIC (E. coli)	MIC (S. aureus; first unmarked strain)	MIC (S. aureus; second unmarked strain)	MIC (Strep. faecalis)	MIC (E. coli TEM 2^+)	MIC (E. coli TEM 2^+ DC 2)	MIC (Sal. typhimurium)	MIC (Ent. aerogenes)	MIC (Prot. morganii Sm^R)	MIC (Prot. mirabilis Gm^R)	MIC (Ps. aeruginosa RPL 11^+)	MIC (Ps. aeruginosa [1])	MIC (Ps. aeruginosa [2])	MIC (Ser. marcescens)	MIC (Actinomyces naeslundii)	MIC (Propionibacterium acnes)	MIC [3]	further results
C=CC=C(C)CCC1CC=CC=C(C)C(OP(=O)(O)O)CCCC=CC=CC=CCC(C)C(=C)CC(=O)O1 (stereo not drawn) [Difficidin, difficidin]	8 mg/L (≈ 14.7 µM)	8 mg/L (≈ 14.7 µM)	8.0 mg/L (≈ 14.7 µM)	8.0 mg/L (≈ 14.7 µM)	16.0 mg/L (≈ 29.4 µM)	8.0 mg/L (≈ 14.7 µM)	> 128.0 mg/L	8.0 mg/L (≈ 14.7 µM)	8.0 mg/L (≈ 14.7 µM)	8.0 mg/L (≈ 14.7 µM)	8.0 mg/L (≈ 14.7 µM)	2.0 mg/L (≈ 3.67 µM)	8.0 mg/L (≈ 14.7 µM)	8.0 mg/L (≈ 14.7 µM)	8.0 mg/L (≈ 14.7 µM)	8.0 mg/L (≈ 14.7 µM)	4.0 mg/L (≈ 7.34 µM)	> 128 mg/L	1 mg/L (≈ 1.84 µM)	0.06 mg/L (≈ 0.11 µM)	effectiveness of difficidin relative to oxydifficidin (Pseudomonas aeruginosa; Ps. aeruginosa, in most cases): four times more effective; MIC (C. ramosum): 2 mg/L (≈ 3.67 µM); MIC [4]: 0.125 mg/L (≈ 0.229 µM); MIC [5]: 0.25 mg/L (≈ 0.459 µM); MIC [6]: 0.06 mg/L (≈ 0.11 µM); MIC [7]: 0.06 mg/L (≈ 0.11 µM); MIC [8]: > 128 mg/L; MIC (B. ovatus Pen^r): 0.125 mg/L (≈ 0.229 µM); MIC [9]: 0.25 mg/L (≈ 0.459 µM); MIC [10]: 0.06 mg/L (≈ 0.11 µM); MIC (Veillonella alcalescens): 0.25 mg/L (≈ 0.459 µM); ED50 ([11]; Test No. 3): 1.56 mg/kg; MIC [12]: 8 mg/L (≈ 14.7 µM); Zone Diameter (Vibrio percolans MB 1272; Fraction 61, 40 μl on 3/8" disc): 12 mm; Zone Diameter (Vibrio percolans MB 1272; Fraction 62, 40 μl on 3/8" disc): 12 mm; Zone Diameter (Vibrio percolans MB 1272; Fraction 63, 40 μl on 3/8" disc): 12 mm; Zone Diameter (Vibrio percolans MB 1272; Fraction 64, 40 μl on 3/8" disc): 12 mm; Zone Diameter (Vibrio percolans MB 1272; Fraction 65, 40 μl on 3/8" disc): 12 mm; activity against anaerobic bacteria (anaerobic bacteria): active against a wide spectrum of anaerobic bacteria
C=CC=C(C)CCC1CC=CC=C(C)C(OP(=O)(O)O)CCCC=CC=CC=CC(O)C(C)C(=C)CC(=O)O1 (stereo not drawn) [Oxydifficidin, oxydifficidin]	4 to 16 mg/L	16 to 32 mg/L	32.0 mg/L (≈ 57.1 µM)	4.0 mg/L (≈ 7.13 µM)	> 128.0 mg/L	32.0 mg/L (≈ 57.1 µM)	> 128.0 mg/L	16.0 mg/L (≈ 28.5 µM)	8.0 mg/L (≈ 14.3 µM)	32.0 mg/L (≈ 57.1 µM)	32.0 mg/L (≈ 57.1 µM)	2.0 mg/L (≈ 3.57 µM)	32.0 mg/L (≈ 57.1 µM)	16.0 mg/L (≈ 28.5 µM)	32.0 mg/L (≈ 57.1 µM)	32.0 mg/L (≈ 57.1 µM)	16.0 mg/L (≈ 28.5 µM)	64 mg/L (≈ 114 µM)	8 mg/L (≈ 14.3 µM)	0.06 mg/L (≈ 0.107 µM)	MIC (C. ramosum): 2 mg/L (≈ 3.57 µM); MIC [4]: 0.25 mg/L (≈ 0.446 µM); MIC [5]: 0.25 mg/L (≈ 0.446 µM); MIC [6]: 0.25 mg/L (≈ 0.446 µM); MIC [7]: 0.06 mg/L (≈ 0.107 µM); MIC [8]: > 128 mg/L; MIC (B. ovatus Pen^r): 0.25 mg/L (≈ 0.446 µM); MIC [9]: 0.25 mg/L (≈ 0.446 µM); MIC [10]: 0.25 mg/L (≈ 0.446 µM); MIC (Veillonella alcalescens): 0.06 mg/L (≈ 0.107 µM); ED50 ([11]; Test No. 1): 12.25 mg/kg; ED50 ([11]; Test No. 2): 14.85 mg/kg; MIC [12]: 8 mg/L (≈ 14.3 µM); Zone Diameter (Vibrio percolans MB 1272; Fraction 11, 40 μl on 3/8" disc): 23 mm; Zone Diameter (Vibrio percolans MB 1272; Fraction 12, 40 μl on 3/8" disc): 19 mm; activity against anaerobic bacteria (anaerobic bacteria): active against a wide spectrum of anaerobic bacteria

Reference: patent US4545991A, “Difficidin and derivative antibacterials” (Merck & Co., Inc., priority 1983, dated 1985)
